In paper PMC6753678, “Fueling Open Innovation for Malaria Transmission-Blocking Drugs: Hundreds of Molecules Targeting Early Parasite Mosquito Stages” (Frontiers in Microbiology, 2019):
Like-named read-outs stand apart in the source and are kept apart here.

What was measured:
[1] = test system: 3D7-strain P. falciparum asexual parasites; test: P. falciparum asexual growth inhibition assay (Pf GIA); assay type: cell-based, Plasmodium falciparum; conditions: dose response confirmation; read-out: Pf asexual growth inhibition assays IC50
Summary of the method: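 0.25% parasitemia, 2% Hct, RPMI/HEPES/hypoxanthine/5% Albumax; compound dose response, 72 h, 37°C, 5% CO2, 5% O2, 90% N2. Freeze-thaw, then LDH assay, A650. % inhibition vs chloroquine (50 μM)/DMSO, mean of 3 independent runs.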

[2] = test system: HepG2 cells; test: HepG2 cytotoxicity assay; conditions: for IC50: read-out: HepG2 cytotoxicity assay IC50, dose response confirmation; for Pb ODA (this manuscript) HepG2 cytoxicity: HepG2 cytotoxicity listed with the Pb ODA data set (this manuscript)
Summary of the method: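 Cells at 2,500 per well in MEM with 10% fetal bovine serum and 1% NEAA were exposed to test compounds for 48 h at 37°C, 5% CO2. Viability was read by fluorescence, with percent inhibition calculated against 50 μM doxorubicin (positive) and DMSO (negative) controls.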

[3] = test system: P. berghei ookinete development; conditions: for % inhibition, Replicate A / % inhibition, Replicate B: primary screen at 1 μM
[4] = unified HepG2 value across the three screens
[5] = read-out: Pb ODA IC50, this manuscript
[6] = read-out: Pb Ookinete development assay IC50, dose response confirmation
[7] = read-out: Pb ODA (this manuscript) IC50, P. berghei ookinete development assay, this manuscript
[8] = HepG2 values of the three screens unified

SMILES | IC50 [1] [nM] | IC50 [2] [nM] | Unified cytotox [2, 4] [µM] | Is compound selective in assay? Pb ODA active? ([3]; 1: YES, 0: NO) | % inhibition, Replicate A [3] [%] | % inhibition, Replicate B [3] [%] | IC50 [3, 5] [nM] | IC50 [3, 6] [nM] | Pb ODA (this manuscript) HepG2 cytoxicity [2] [µM] | Is compound selective in assay? Pb ODA active? [3] | IC50 [3, 7] [nM] | HepG2 cytoxicity (Pb ODA, this manuscript) [2] [µM] | Unified cytotox [2, 8] [µM] | IC50 ([3]; read-out: Pb ODA IC50) [nM] | IC50 ([3]; read-out: Pb Ookinete development assay IC50) [nM]
COc1ccc2ncc(F)c(CCN3CC[C@H](NCc4cc(C#N)c5c(c4)OCCO5)[C@H](O)C3)c2c1 [TCMDC-136207] | 795 | 38000 | 38.02 | 1 (1: YES) | 67.99 | 58.62 | 750 | 747 |  |  |  |  |  |  | 
COc1ccc2ncc(F)c(CCN3CCC(NCc4cc(C)c5c(c4)OCCO5)CC3)c2n1.Cl [TCMDC-136209] | 449 | 21400 |  |  | 56.92 | 30.84 |  | 1740 | 21.38 | 1 (key: 1: YES; 0: NO) | 1740 |  |  |  | 
COc1ccc2ncc(F)c(CCN3CCC(NCc4cc(Br)c5c(c4)OCCO5)CC3)c2n1.Cl [TCMDC-136211] | 239 | 14400 |  |  | 36.10 | 50.60 |  | 3400 | 14.45 | 0 (key: 1: YES; 0: NO) | 3390 |  |  |  | 
CCCCN(C)CC#Cc1ccc(-c2ccc3[nH]c(C)c(Br)c(=O)c3c2)cn1 [TCMDC-136285] | 1060 | 100000 | 100.00 | 1 (1: YES) | 73.89 | 66.49 | 1020 | 1020 |  |  |  |  |  |  | 
Cc1[nH]c(C)c(-c2ccc(-c3cccc(OC(F)(F)F)c3)nc2)c(=O)c1Cl [TCMDC-136286] | 258 | 8510 |  | 1 (1: YES) | 104.87 | 108.75 | 300 | 303 |  |  |  | 8.51 | 8.51 |  | 
Cc1[nH]c(C)c(-c2ccc(-c3cccc(Cl)c3)nc2)c(=O)c1Cl [TCMDC-136300] | 203 | 56200 |  | 1 (1: YES) | 90.77 | 81.67 | 680 | 675 |  |  |  | 56.23 | 56.23 |  | 
Cc1[nH]c(C)c(-c2ccc(-c3ccc(Cl)cc3)nc2)c(=O)c1Cl [TCMDC-136301] | 193 | 100000 |  | 1 (1: YES) | 94.15 | 37.57 | 960 | 963 |  |  |  |  | 100.00 |  | 
Cc1[nH]c(C)c(-c2ccc(-c3ccccc3Cl)nc2)c(=O)c1Cl [TCMDC-136303] | 248 | 100000 |  | 1 (1: YES) | 118.12 | 98.57 | 230 | 229 |  |  |  |  | 100.00 |  | 
COc1ccc2ncc(F)c(NC(=O)C3CCC(NCc4cc5c(F)cccc5[nH]4)CC3)c2n1.Cl (stereo not drawn) [TCMDC-136354] | 475 | 3630 |  |  | 86.49 | 82.69 |  | 252 | 3.63 | 1 (key: 1: YES; 0: NO) | 250 |  |  |  | 
COc1ccc2ncc(F)c(NC(=O)C3CCC(NCc4cc5cc(F)cc(F)c5[nH]4)CC3)c2n1.Cl (stereo not drawn) [TCMDC-136455] | 2430 | 15500 |  |  | 109.55 | 94.56 |  | 1020 | 15.49 | 1 (key: 1: YES; 0: NO) | 1020 |  |  |  | 
CN1CCN(CC(=O)Nc2ccc(-c3ccc(-c4nc5ccccc5[nH]4)cc3)cc2)CC1 [TCMDC-136979] | 1110 | 21600 | 21.63 | 0 (0: NO) | 58.34 | 20.87 | 4190 | 4190 |  |  |  |  |  |  | 
Cc1cc(=O)c2cc(-c3ccc(OC(F)(F)F)cc3)ccc2[nH]1 [TCMDC-137042] | 2190 | 100000 | 100.00 | 1 (1: YES) | 37.82 | 64.25 | 6380 | 6380 |  |  |  |  |  |  | 
Cl.c1ccc(Oc2ccc(Nc3nncc4ccccc34)cc2)cc1 [TCMDC-137229] | 544 | 100000 | 100.00 | 1 (1: YES) | 75.48 | 62.89 | 690 | 692 |  |  |  |  |  |  | 
Cc1c(Cc2ccccc2Br)cnc2nc(N)nc(N)c12.Cl [TCMDC-137244] | 4 | 7.76 |  |  | 44.00 | 63.36 |  | 8490 | 0.00776 | 0 (key: 1: YES; 0: NO) | 8490 |  |  |  | 
Cc1cc(=O)c(-c2ccc(Oc3cccc(Cl)c3)cc2)c(C)[nH]1 [TCMDC-137265] | 1850 | 3720 |  | 0 (0: NO) | 110.80 | 102.47 | 1280 | 1280 |  |  |  | 3.72 | 3.72 |  | 
Cc1cc(=O)c(-c2ccc(Oc3cccc(OC(F)(F)F)c3)cc2)c(C)[nH]1 [TCMDC-137266] | 99 | 10700 |  |  | 74.10 | 97.06 |  | 205 | 10.72 | 1 (key: 1: YES; 0: NO) | 200 |  |  |  | 
CCCCCCCCCc1c(C)[nH]c2ccccc2c1=O [TCMDC-137268] | 168 | 67600 |  |  | 77.84 | 91.25 |  | 386 | 67.61 | 1 (key: 1: YES; 0: NO) | 390 |  |  |  | 
CCCCCCCc1c(C)[nH]c2ccc(F)cc2c1=O [TCMDC-137269] | 208 | 100000 |  |  | 57.79 | 78.85 |  | 319 | 100.00 | 1 (key: 1: YES; 0: NO) | 320 |  |  |  | 
CCC(CC)n1c(C)cc2c3c(N)nc(N)nc3ccc21 [TCMDC-137283] | < 0.2 | 1.7 |  | 0 (0: NO) | 93.53 | 103.53 | 850 | 846 |  |  |  | 0.0017 | 0.0017 |  | 
CCN(CC)S(=O)(=O)n1ncc2c3c(N)nc(N)nc3ccc21.Cl [TCMDC-137302] | 79 | 53.1 |  |  | 53.62 | 57.06 |  | 2000 | 0.0531 | 0 (key: 1: YES; 0: NO) |  |  |  |  | 
CCc1cc2c3c(N)nc(N)nc3ccc2n1C(C)(C)C [TCMDC-137306] | 3.2 | 1.7 |  | 0 (0: NO) | 81.63 | 92.90 | 1080 | 1080 |  |  |  | 0.0017 | 0.0017 |  | 
CCC(C)(C)n1c(C)cc2c3c(N)nc(N)nc3ccc21 [TCMDC-137307] | 0.9 | 1.69 |  |  | 47.56 | 73.34 |  |  |  |  |  | 0.00169 | 0.00169 | 1190 | 1190
CCc1cc2c3c(N)nc(N)nc3ccc2n1C(C)CC (stereo not drawn) [TCMDC-137308] | < 0.2 | 1.7 |  | 0 (0: NO) | 67.31 | 61.54 | 690 | 694 |  |  |  | 0.0017 | 0.0017 |  | 
CCCc1cc2c3c(N)nc(N)nc3ccc2n1C(CC)CC [TCMDC-137312] | < 0.2 | 1.7 |  | 0 (0: NO) | 47.03 | 71.34 | 460 | 463 |  |  |  | 0.0017 | 0.0017 |  | 
